The values that follow come from patent US8637509B2, “Azaindazoles” (GlaxoSmithKline LLC, priority 2010, dated 2014).

pIC50: −log10 of the molar value.

T1 sequence (Q15910 whole entry): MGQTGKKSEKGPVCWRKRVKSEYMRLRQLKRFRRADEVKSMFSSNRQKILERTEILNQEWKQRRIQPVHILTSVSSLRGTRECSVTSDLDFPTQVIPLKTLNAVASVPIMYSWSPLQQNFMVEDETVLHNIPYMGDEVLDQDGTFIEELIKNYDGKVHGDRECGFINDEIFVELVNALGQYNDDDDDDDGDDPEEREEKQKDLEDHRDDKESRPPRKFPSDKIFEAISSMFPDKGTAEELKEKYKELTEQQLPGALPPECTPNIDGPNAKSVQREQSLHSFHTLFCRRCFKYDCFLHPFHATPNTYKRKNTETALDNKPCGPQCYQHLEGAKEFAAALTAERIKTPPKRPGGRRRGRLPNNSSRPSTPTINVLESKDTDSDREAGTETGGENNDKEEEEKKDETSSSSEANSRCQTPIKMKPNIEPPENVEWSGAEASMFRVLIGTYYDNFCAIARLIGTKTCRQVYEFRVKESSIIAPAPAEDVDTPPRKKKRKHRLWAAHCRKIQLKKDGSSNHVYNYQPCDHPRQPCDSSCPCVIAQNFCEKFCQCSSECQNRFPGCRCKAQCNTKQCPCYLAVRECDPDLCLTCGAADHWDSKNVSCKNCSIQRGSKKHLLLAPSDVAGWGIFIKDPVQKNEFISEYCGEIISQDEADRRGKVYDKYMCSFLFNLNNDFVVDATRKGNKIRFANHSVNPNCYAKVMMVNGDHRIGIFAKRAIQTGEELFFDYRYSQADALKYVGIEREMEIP
T1 sequence (O75530 whole entry partner): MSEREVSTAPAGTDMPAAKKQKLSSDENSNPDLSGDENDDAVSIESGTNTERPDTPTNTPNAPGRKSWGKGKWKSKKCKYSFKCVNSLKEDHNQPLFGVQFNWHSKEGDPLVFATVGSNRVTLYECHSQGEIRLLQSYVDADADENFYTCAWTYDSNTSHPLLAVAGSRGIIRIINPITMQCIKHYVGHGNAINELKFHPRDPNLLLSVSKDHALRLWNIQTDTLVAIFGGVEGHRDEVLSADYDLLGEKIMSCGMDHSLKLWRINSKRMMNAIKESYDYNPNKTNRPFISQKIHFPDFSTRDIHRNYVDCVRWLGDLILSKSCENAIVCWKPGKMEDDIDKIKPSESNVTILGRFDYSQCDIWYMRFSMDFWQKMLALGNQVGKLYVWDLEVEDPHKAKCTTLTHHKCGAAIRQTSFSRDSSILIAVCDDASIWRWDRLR
T1 sequence (Q15022 whole entry partner): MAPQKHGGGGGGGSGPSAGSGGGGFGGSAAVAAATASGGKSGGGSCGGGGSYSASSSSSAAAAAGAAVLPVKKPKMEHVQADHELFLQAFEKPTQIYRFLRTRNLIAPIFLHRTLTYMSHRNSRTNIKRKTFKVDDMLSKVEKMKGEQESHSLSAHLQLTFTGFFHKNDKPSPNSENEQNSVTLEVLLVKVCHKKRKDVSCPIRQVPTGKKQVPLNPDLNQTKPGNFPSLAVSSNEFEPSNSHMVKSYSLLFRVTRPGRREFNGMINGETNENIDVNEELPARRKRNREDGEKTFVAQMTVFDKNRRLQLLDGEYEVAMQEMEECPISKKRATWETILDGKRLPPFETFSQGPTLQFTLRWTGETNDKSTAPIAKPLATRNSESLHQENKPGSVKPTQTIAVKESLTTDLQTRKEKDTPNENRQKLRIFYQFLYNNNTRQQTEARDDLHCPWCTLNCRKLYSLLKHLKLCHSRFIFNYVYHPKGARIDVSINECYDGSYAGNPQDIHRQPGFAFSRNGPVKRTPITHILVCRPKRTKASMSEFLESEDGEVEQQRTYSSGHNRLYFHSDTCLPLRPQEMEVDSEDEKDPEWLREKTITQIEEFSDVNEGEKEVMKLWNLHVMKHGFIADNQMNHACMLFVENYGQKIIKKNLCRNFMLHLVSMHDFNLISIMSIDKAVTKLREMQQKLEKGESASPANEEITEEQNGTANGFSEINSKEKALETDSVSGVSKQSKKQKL

One assay has as its target T1, EZH2 (Homo sapiens, UniProt Q15910).
T1 construct: GRITS37108
As to the kind of experiment: EZH2 methyltransferase SPA assay (3H-SAM, Hela nucleosomes).
Settings: not given
In kind it is biochemical.
The term pIC50 denotes the negative decadic logarithm of the IC50, by convention in mol/L. `CCCc1cc(C)[nH]c(=O)c1CNC(=O)c1cc(-c2ccncc2)nc2c1cnn2C(C)C` [Ex 11, 1-(1-Methylethyl)-N-[(6-methyl-2-oxo-4-propyl-1,2-dihydro-3-pyridinyl)methyl]-6-(4-pyridinyl)-1H-pyrazolo[3,4-b]pyridine-4-carboxamide] gave a pIC50 of 7.74.

The same assay, now with this note: 10 nM EZH2, 7 μg/ml Hela nucleosomes, 2-parameter IC50 fit; single-point-in-time values; read-out: IC50.
As for “6-{[4-(Aminocarbonyl)phenyl]amino}-N-[(4,6-dimethyl-2-oxo-1,2-dihydro-3-pyridinyl)methyl]-1-(1-methylethyl)-1H-pyrazolo[3,4-b]pyridine-4-carboxamide [Ex 86]”, the pIC50 is 6.85.
For “N-[(4,6-Dimethyl-2-oxo-1,2-dihydro-3-pyridinyl)methyl]-1-(1-methylethyl)-6-(2-phenylethyl)-1H-pyrazolo[3,4-b]pyridine-4-carboxamide [Ex 32]”, the pIC50 is 6.07.

The same assay, now with this note: read-out: IC50.
On to `Cc1cc(C)c(CNC(=O)c2cc(NCc3ccncc3)nc3c2cnn3C(C)C)c(=O)[nH]1` [Ex 55, N-[(4,6-Dimethyl-2-oxo-1,2-dihydro-3-pyridinyl)methyl]-1-(1-methylethyl)-6-[(4-pyridinylmethyl)amino]-1H-pyrazolo[3,4-b]pyridine-4-carboxamide], for which the negative-log IC50 (pIC50) was 6.59.
Take `CCCc1cc(C(=O)NCc2c(C)cc(C)[nH]c2=O)c2cnn(C(C)C)c2n1` [Ex 125, N-[(4,6-Dimethyl-2-oxo-1,2-dihydro-3-pyridinyl)methyl]-1-(1-methylethyl)-6-propyl-1H-pyrazolo[3,4-b]pyridine-4-carboxamide]: the pIC50 is 5.66.
Regarding `CCCc1cc(C)[nH]c(=O)c1CNC(=O)c1cc(C2CC2)nc2c1cnn2C(C)C` [Ex 13, 6-Cyclopropyl-1-(1-methylethyl)-N-[(6-methyl-2-oxo-4-propyl-1,2-dihydro-3-pyridinyl)methyl]-1H-pyrazolo[3,4-b]pyridine-4-carboxamide], the pIC50 is 7.26.
With `Cc1cc(C)c(CNC(=O)c2cc(-c3ccc4cn[nH]c4c3)nc3c2cnn3C(C)C)c(=O)[nH]1` [Ex 75, N-[(4,6-Dimethyl-2-oxo-1,2-dihydro-3-pyridinyl)methyl]-6-(1H-indazol-6-yl)-1-(1-methylethyl)-1H-pyrazolo[3,4-b]pyridine-4-carboxamide], the pIC50 is 6.88.
The same measure, in the same setting: to `Cc1cc(C)c(CNC(=O)c2cc(-c3ccc(S(N)(=O)=O)cc3)nc3c2cnn3C(C)C)c(=O)[nH]1` [Ex 50, 6-[4-(Aminosulfonyl)phenyl]-N-[(4,6-dimethyl-2-oxo-1,2-dihydro-3-pyridinyl)methyl]-1-(1-methylethyl)-1H-pyrazolo[3,4-b]pyridine-4-carboxamide] belongs 7.09; to `Cc1cc(C)c(CNC(=O)c2cc(-c3ccncc3)nc3c2cnn3C(C)C)c(=O)[nH]1` [Ex 114, N-[(4,6-Dimethyl-2-oxo-1,2-dihydro-3-pyridinyl)methyl]-1-(1-methylethyl)-6-(4-pyridinyl)-1H-pyrazolo[3,4-b]pyridine-4-carboxamide], 6.70.
Same read-out and setting: then `Cc1cc(C)c(CNC(=O)c2cc(-c3cccnc3)nc3c2c(C)nn3C(C)(C)C)c(=O)[nH]1` [Ex 122, 1-(1,1-Dimethylethyl)-N-[(4,6-dimethyl-2-oxo-1,2-dihydro-3-pyridinyl)methyl]-3-methyl-6-(3-pyridinyl)-1H-pyrazolo[3,4-b]pyridine-4-carboxamide], with 6.82; and `Cc1cc(C)c(CNC(=O)c2cc(-c3ccc4[nH]ncc4c3)nc3c2cnn3C(C)C)c(=O)[nH]1` [Ex 74, N-[(4,6-Dimethyl-2-oxo-1,2-dihydro-3-pyridinyl)methyl]-6-(1H-indazol-5-yl)-1-(1-methylethyl)-1H-pyrazolo[3,4-b]pyridine-4-carboxamide], with 6.82.
As for `Cc1cc(C)c(CNC(=O)c2cc(C#Cc3ccccc3)nc3c2cnn3C(C)C)c(=O)[nH]1` [Ex 31, N-[(4,6-Dimethyl-2-oxo-1,2-dihydro-3-pyridinyl)methyl]-1-(1-methylethyl)-6-(phenylethynyl)-1H-pyrazolo[3,4-b]pyridine-4-carboxamide], the pIC50 was 6.63.
As to `Cc1cc(C)c(CNC(=O)c2cc(-c3ccc(C(N)=O)cc3)nc3c2cnn3C(C)C)c(=O)[nH]1` [Ex 94, 6-[4-(Aminocarbonyl)phenyl]-N-[(4,6-dimethyl-2-oxo-1,2-dihydro-3-pyridinyl)methyl]-1-(1-methylethyl)-1H-pyrazolo[3,4-b]pyridine-4-carboxamide], the negative-log IC50 (pIC50) is 6.99.
For `Cc1cc(C)c(CNC(=O)c2cc(-c3cccc(N)c3)nc3c2cnn3C(C)C)c(=O)[nH]1` [Ex 45, 6-(3-aminophenyl)-N-[(4,6-dimethyl-2-oxo-1,2-dihydro-3-pyridinyl)methyl]-1-(1-methylethyl)-1H-pyrazolo[3,4-b]pyridine-4-carboxamide], the pIC50 is 6.61.
With `COc1cncc(-c2cc(C(=O)NCc3c(C)cc(C)[nH]c3=O)c3cnn(C(C)C)c3n2)c1` [Ex 58, N-[(4,6-Dimethyl-2-oxo-1,2-dihydro-3-pyridinyl)methyl]-1-(1-methylethyl)-6-[5-(methyloxy)-3-pyridinyl]-1H-pyrazolo[3,4-b]pyridine-4-carboxamide], the pIC50 was 7.11.
Same read-out and setting: then `Cc1cc(C)c(CNC(=O)c2cc(-c3ccc(N4CCOCC4)nc3)nc3c2c(C)nn3C(C)C)c(=O)[nH]1` [Ex 83, N-[(4,6-Dimethyl-2-oxo-1,2-dihydro-3-pyridinyl)methyl]-3-methyl-1-(1-methylethyl)-6-[6-(4-morpholinyl)-3-pyridinyl]-1H-pyrazolo[3,4-b]pyridine-4-carboxamide], with 7.37; and `Cc1cc(C)c(CNC(=O)c2cc(C3CC3)nc3c2c(C)nn3C2CCCC2)c(=O)[nH]1` [Ex 106, 1-Cyclopentyl-6-cyclopropyl-N-[(4,6-dimethyl-2-oxo-1,2-dihydro-3-pyridinyl)methyl]-3-methyl-1H-pyrazolo[3,4-b]pyridine-4-carboxamide], with 6.92; and `CC(=O)Nc1cccc(-c2cc(C(=O)NCc3c(C)cc(C)[nH]c3=O)c3cnn(C(C)C)c3n2)c1` [Ex 47, 6-[3-(Acetylamino)phenyl]-N-[(4,6-dimethyl-2-oxo-1,2-dihydro-3-pyridinyl)methyl]-1-(1-methylethyl)-1H-pyrazolo[3,4-b]pyridine-4-carboxamide], with 7.06.
The same measure, in the same setting: then `Cc1cc(C2CC2)[nH]c(=O)c1CNC(=O)c1cc(C2CC2)nc2c1cnn2C(C)C` [Ex 19, 6-Cyclopropyl-N-[(6-cyclopropyl-4-methyl-2-oxo-1,2-dihydro-3-pyridinyl)methyl]-1-(1-methylethyl)-1H-pyrazolo[3,4-b]pyridine-4-carboxamide], with 5.47; and `COc1ccc(-c2cc(C(=O)NCc3c(C)cc(C)[nH]c3=O)c3cnn(C(C)C)c3n2)cc1` [Ex 113, N-[(4,6-Dimethyl-2-oxo-1,2-dihydro-3-pyridinyl)methyl]-1-(1-methylethyl)-6-[4-(methyloxy)phenyl]-1H-pyrazolo[3,4-b]pyridine-4-carboxamide], with 6.61.
For `Cc1cc(C)c(CNC(=O)c2cc(-c3ccc(N(C)C)nc3)nc3c2cnn3C(C)C)c(=O)[nH]1` [Ex 41, 6-[6-(Dimethylamino)-3-pyridinyl]-N-[(4,6-dimethyl-2-oxo-1,2-dihydro-3-pyridinyl)methyl]-1-(1-methylethyl)-1H-pyrazolo[3,4-b]pyridine-4-carboxamide], the negative logarithm of the IC50 (pIC50) is 7.07.
`Cc1cc(C)c(CNC(=O)c2cc(-c3ccc(N)nc3)nc3c2cnn3C(C)C)c(=O)[nH]1` [Ex 60, 6-(6-Amino-3-pyridinyl)-N-[(4,6-dimethyl-2-oxo-1,2-dihydro-3-pyridinyl)methyl]-1-(1-methylethyl)-1H-pyrazolo[3,4-b]pyridine-4-carboxamide]: the negative logarithm of the IC50 (pIC50) was 6.70.
With `Cc1cc(C)c(CNC(=O)c2cc(C3CC3)nc3c2c(C)nn3C(C)C)c(=O)[nH]1` [Ex 103, 6-Cyclopropyl-N-[(4,6-dimethyl-2-oxo-1,2-dihydro-3-pyridinyl)methyl]-3-methyl-1-(1-methylethyl)-1H-pyrazolo[3,4-b]pyridine-4-carboxamide], the pIC50 is 6.43.
Still for that read-out and setting: to `CCNc1cc(C(=O)NCc2c(C)cc(C)[nH]c2=O)c2cnn(C(C)C)c2n1` [Ex 21, N-[(4,6-Dimethyl-2-oxo-1,2-dihydro-3-pyridinyl)methyl]-6-(ethylamino)-1-(1-methylethyl)-1H-pyrazolo[3,4-b]pyridine-4-carboxamide] belongs 5.98; to `Cc1cc(C)c(CNC(=O)c2cc(-c3ccc4[nH]nc(C)c4c3)nc3c2cnn3C(C)C)c(=O)[nH]1` [Ex 30, N-[(4,6-Dimethyl-2-oxo-1,2-dihydro-3-pyridinyl)methyl]-1-(1-methylethyl)-6-(3-methyl-1H-indazol-5-yl)-1H-pyrazolo[3,4-b]pyridine-4-carboxamide], 6.81; to `CNS(=O)(=O)c1ccc(-c2cc(C(=O)NCc3c(C)cc(C)[nH]c3=O)c3cnn(C(C)C)c3n2)cn1` [Ex 97, N-[(4,6-Dimethyl-2-oxo-1,2-dihydro-3-pyridinyl)methyl]-6-{6-[(methylamino)sulfonyl]-3-pyridinyl}-1-(1-methylethyl)-1H-pyrazolo[3,4-b]pyridine-4-carboxamide], 7.26.
For the molecule `CNS(=O)(=O)c1ccc(-c2cc(C(=O)NCc3c(C)cc(C)[nH]c3=O)c3c(C)nn(C(C)C)c3n2)cc1` [Ex 92, N-[(4,6-Dimethyl-2-oxo-1,2-dihydro-3-pyridinyl)methyl]-3-methyl-6-{4-[(methylamino)sulfonyl]phenyl}-1-(1-methylethyl)-1H-pyrazolo[3,4-b]pyridine-4-carboxamide], the negative logarithm of the IC50 (pIC50) was 7.12.
As for `CNC(=O)c1ccc(-c2cc(C(=O)NCc3c(C)cc(C)[nH]c3=O)c3cnn(C(C)C)c3n2)cc1` [Ex 46, N-[(4,6-Dimethyl-2-oxo-1,2-dihydro-3-pyridinyl)methyl]-6-{4-[(methylamino)carbonyl]phenyl}-1-(1-methylethyl)-1H-pyrazolo[3,4-b]pyridine-4-carboxamide], the pIC50 is 6.89.
In the case of `Cc1cc(C)c(CNC(=O)c2cc(-c3ccc(N4CCOCC4)nc3)nc3c2c(C)nn3C(C)(C)C)c(=O)[nH]1` [Ex 89, 1-(1,1-Dimethylethyl)-N-[(4,6-dimethyl-2-oxo-1,2-dihydro-3-pyridinyl)methyl]-3-methyl-6-[6-(4-morpholinyl)-3-pyridinyl]-1H-pyrazolo[3,4-b]pyridine-4-carboxamide], the pIC50 is 7.17.
